The target of the assay is PHF (paired helical filaments) isolated from the brain of an Alzheimer's disease patient (Homo sapiens, UniProt P10636). The experiment in a line: Competitive binding assay: displacement of primulin fluorescence from PHFs. The settings on record: concentration that reduces the signal of 1 μM primulin to 50% of control, relative affinity; for IC50: read-out: P50. The method, then: The DSB compounds were tested for their ability to bind to PHF in a competition-style assay.
Sequence of PHF (paired helical filaments) isolated from the brain of an Alzheimer's disease patient (P10636 623-708 limits assumed): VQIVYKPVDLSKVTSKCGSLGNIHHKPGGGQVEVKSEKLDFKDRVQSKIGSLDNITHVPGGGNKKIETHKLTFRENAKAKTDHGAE
If a test compound that also binds to PHFs with the same or greater affinity is added, it will displace the reference ligand and reduce the fluorescence signal. In the present assay, the reference compound is primulin, which was added at 1 μM. Test compounds were added at concentrations from 0.05 to 1 μM. The P50 for a test compound is defined as the concentration of compound that reduces the primulin signal to 50% of the control value. This value is, therefore, not an absolute affinity, but a relative affinity compared to the affinity of primulin.
PHFs were isolated from the brain of an Alzheimer's disease patient essentially as described by Wischik et al. (Neurobiology of Aging, Vol. 16, pp. 409-431, 1995). The IFII fraction was isolated by centrifugation on a sucrose gradient as described in the PhD thesis of C. M. Wischik, and was further extracted into an ‘abc sup’ as described by C. M. Wischik (Thesis “The structure and biochemistry of paired helical filaments in Alzheimer's disease” Part I and II; Cambridge University, 1989).
The assay for ligand activity was performed in 96 well plates (Nunc Cat. No. 236108). The test compound at the required concentration was mixed with PHFs, then primulin was added to give a final concentration of 1 μM and a total volume of 100 μl. The concentration of PHFs added was determined for each preparation to give an adequate fluorescence signal, and was typically in the range 1-2 μl/100 μl. The test compounds were typically dissolved in DMSO to give a final concentration of 10% DMSO in the assay. The control fluorescence, in the absence of PHFs, was also measured in the presence of 10% DMSO.
The fluorescence was measured in a Varian Carey Eclipse Fluorescence Spectrophotometer, with the […] wavelength at 480 nm. Excitation spectra were recorded and corrected by subtraction of the signal measured in the absence of PHFs, using the Varian software. The fluorescence signal at the peak […] wavelength of 420 nm was measured from the corrected spectra. The fluorescence values were plotted as a function of concentration of test compound, and the value for P50 measured from the graph.

Consider `COc1ccc2nc(-c3ccc(/C=C/c4ccc([N+](=O)[O-])cc4)cc3)sc2c1` [BEMOA-03], for which the IC50 is 40 nM.

Consider `COc1ccc2nc(-c3ccc(/C=C/c4cccc(N)c4)cc3)sc2c1` [BEMOA-05], for which the IC50 came out at 280 nM.

On to `COc1ccc2nc(-c3ccc(/C=C/c4ccc(N)cc4)cc3)sc2c1` [BEMOA-06], for which the P50 entry is “no effect”.

Turning to `COc1ccc2nc(-c3ccc(/C=C/c4ccc(O)c([N+](=O)[O-])c4)cc3)sc2c1` [BEMOA-09], the IC50 was found to be 30 nM.

On to `Cc1ccc2nc(-c3ccc(/N=N/c4ccc(N(C)C)cc4)cc3)cn2c1` [DPN-001], for which the IC50 was 30 nM.

As for `Cc1ccc2nc(-c3ccc(/C=C/c4ccc([N+](=O)[O-])cc4)cc3)cn2c1` [IEPN-01], the IC50 was 50 nM.

For the origin of these results see patent US8895313B2, “Ligands for aggregated tau molecules” (Wista Laboratories Ltd., priority 2008, dated 2014).
